Results taken from patent publication US11001584B2, “Polymorphs” (SYNGENTA PARTICIPATIONS AG, priority 2016, dated 2021).

Experiment: Stability of polymorphs: equal amounts of both polymorphs stirred in IPA, form determined by DSC and high throughput pXRD
Format: physicochemical
Conditions: 24 hours
Description: Equal amounts of the polymorph of the invention and the Reference Form A polymorph were stirred in IPA at a range of temperatures. After 24 hours, the crystals were isolated and dried and their polymorphic form determined by DSC and high throughput pXRD.

Structure (SMILES)	DSC curves of the isolated crystals (polymorphic form present) (equal amounts of polymorph of the invention and Reference Form A stirred in IPA at a range of temperatures)	Powder XRD patterns of the isolated crystals (polymorphic form present) (equal amounts of polymorph of the invention and Reference Form A stirred in IPA, room temperature, 40° C. and 50° C.)	Relative polymorphic stability (stirred with Reference Form A in IPA, room temperature up to 50° C.)
CCOC(=O)OC1=C(c2c(C)cc(Cl)cc2C)C(=O)N(C)C12CCN(OC)CC2 [Reference Form A]	marked reduction in the presence of Reference Form A	reflections characteristic of Reference Form A were absent	
CCOC(=O)OC1=C(c2c(C)cc(Cl)cc2C)C(=O)N(C)C12CCN(OC)CC2 [polymorph of the invention]			the stable form over the temperature range studied
